Key:
[1] = target: Histamine H3 receptor (Mus musculus) (UniProt P58406); assay: In vivo antagonistic activity against histamine H3-receptor of Swiss mice brain after peroral administration; type: functional, organism-based
[2] = target: Histamine H2 receptor (Cavia porcellus) (UniProt P47747); assay: In vitro antagonistic activity against histamine H2-receptor of guinea pig atrium; type: functional, tissue-based; conditions: Cardiac atrium
[3] = target: Histamine H1 receptor (Cavia porcellus) (UniProt P31389); assay: In vitro antagonistic activity against histamine H1-receptor of guinea pig ileum; type: functional, tissue-based
[4] = target: Histamine H3 receptor (Rattus norvegicus, UniProt Q9QYN8); assay: In vitro antagonistic activity against histamine H3-receptor in an assay with K+-evoked depolarisation-induced release of [3H]histamine of synaptosomes of rat cerebral cortex; type: functional, subcellular, Brain
Chain of Histamine H3 receptor (Q9QYN8 whole entry): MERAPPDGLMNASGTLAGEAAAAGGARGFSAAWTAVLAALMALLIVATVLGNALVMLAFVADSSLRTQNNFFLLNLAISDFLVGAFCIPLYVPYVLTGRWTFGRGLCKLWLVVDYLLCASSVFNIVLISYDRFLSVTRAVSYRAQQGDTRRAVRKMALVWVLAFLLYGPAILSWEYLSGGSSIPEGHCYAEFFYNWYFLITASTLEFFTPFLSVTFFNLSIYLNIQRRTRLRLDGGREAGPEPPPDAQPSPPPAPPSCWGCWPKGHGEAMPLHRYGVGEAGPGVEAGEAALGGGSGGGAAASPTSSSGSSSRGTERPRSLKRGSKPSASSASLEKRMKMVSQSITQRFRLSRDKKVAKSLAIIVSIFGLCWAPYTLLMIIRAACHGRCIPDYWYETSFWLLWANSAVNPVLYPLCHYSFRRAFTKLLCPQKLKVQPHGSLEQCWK

Chain of Histamine H2 receptor (Cavia porcellus) (P47747 whole entry): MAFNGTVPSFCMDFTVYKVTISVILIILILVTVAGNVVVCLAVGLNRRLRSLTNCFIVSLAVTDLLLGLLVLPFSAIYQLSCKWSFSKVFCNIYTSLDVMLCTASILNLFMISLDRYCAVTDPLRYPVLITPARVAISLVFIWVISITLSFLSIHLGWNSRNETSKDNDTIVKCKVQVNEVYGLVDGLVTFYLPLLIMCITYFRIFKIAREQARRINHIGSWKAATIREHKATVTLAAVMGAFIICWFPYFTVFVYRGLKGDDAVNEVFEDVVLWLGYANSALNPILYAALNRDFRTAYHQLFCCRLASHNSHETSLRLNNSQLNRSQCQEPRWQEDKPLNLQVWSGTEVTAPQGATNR
Chain of Histamine H1 receptor (Cavia porcellus) (P31389 whole entry): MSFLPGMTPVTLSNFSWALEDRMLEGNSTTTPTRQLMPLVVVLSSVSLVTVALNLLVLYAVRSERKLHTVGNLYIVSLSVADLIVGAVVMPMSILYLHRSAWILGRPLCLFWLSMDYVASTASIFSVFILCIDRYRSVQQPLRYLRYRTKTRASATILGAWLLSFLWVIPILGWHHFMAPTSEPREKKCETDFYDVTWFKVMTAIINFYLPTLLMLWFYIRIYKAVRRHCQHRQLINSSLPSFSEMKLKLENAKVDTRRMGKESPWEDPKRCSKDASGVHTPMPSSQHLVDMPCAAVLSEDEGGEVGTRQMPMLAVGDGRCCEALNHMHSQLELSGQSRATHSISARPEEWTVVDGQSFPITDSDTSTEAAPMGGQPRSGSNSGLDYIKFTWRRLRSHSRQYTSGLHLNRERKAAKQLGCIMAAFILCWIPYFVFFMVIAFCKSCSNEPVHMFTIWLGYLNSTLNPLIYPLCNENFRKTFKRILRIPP
Chain of Histamine H3 receptor (Mus musculus) (P58406 whole entry): as the sequence (Q9QYN8 whole entry) above, with T15A, A286T, A290G, R387H, I389V counted along it

Compound	ED50 [1] [mg/kg]	-Log K [2]	Kb [3] [nM]	Ki [4] [nM]
Clc1ccc(C(OCCCc2c[nH]cn2)c2ccccc2)cc1 (stereo not given)	3.9	5.2	–	–
N=C(NCc1ccc(Cl)cc1)SCCCc1c[nH]cn1	26	< 6	> 1000	–
c1ccc(C(OCCCc2c[nH]cn2)c2ccccc2)cc1	2.4	5.5	501	25.1
Fc1ccc(C(OCCCc2c[nH]cn2)c2ccccc2)cc1 (stereo not given)	1.2	5.3	–	25.1
S=C(NC1CCCCC1)N1CCC(c2cnc[nH]2)CC1	1	< 5	> 100000	–
Fc1ccc(C(OCCCc2c[nH]cn2)c2ccc(F)cc2)cc1	1.1	5.6	–	25.1
c1ccc(COCCCc2c[nH]cn2)cc1	> 10	3.7	20000	20
Brc1ccc(C(OCCCc2c[nH]cn2)c2ccccc2)cc1 (stereo not given)	3.6	5.4	–	126
FC(F)(F)c1ccc(C(OCCCc2c[nH]cn2)c2ccccc2)cc1 (stereo not given)	> 10	–	–	200
c1ccc2c(COCCCc3c[nH]cn3)cccc2c1	3.2	4.9	–	20

Reference: ChEMBL document CHEMBL1151569, “Diphenylmethyl ethers: synthesis and histamine H3-receptor antagonist in vitro and in vivo activity” (Bioorg Med Chem Lett, 1996)
